Residues, ends and D or L forms follow the SMILES beside them. *: point of attachment. Palmitoyl = CCCCCCCCCCCCCCCC(=O)*
Experiments:
MDR E. coli = assay: Live/dead bacterial viability assay; type: cell-based, multidrug-resistant E. coli (MDR E. coli); conditions: 4 h
Text: To further investigate bacteria viability after treatment with ACA-PA, the live/dead assay was used to confirm the antibacterial actions of ACA-PA. Dead bacteria with disrupted membrane were stained a first color, whereas live bacteria were stained with a second color fluorescence. A large amount of robust MRSA bacteria in the untreated control sample appeared a second color and in spherical shapes (FIG. 10A). […] This antibacterial activity was dependent on the concentration of PA, yet was not determined by peptide self-assembly. Nonetheless, Gram-negative MDR E. coli responded to the treatment of ACA-PA differently from Gram-positive MRSA.
The live/dead bacterial viability assay was conducted to further assess the bactericidal efficacy of ACA-PA using the LIVE/DEAD BacLight Bacterial Viability Kits (Kits 71007, Molecular Probes, Eugene, OR, USA). MRSA and MDR E. coli bacteria (100 μl, 10^6 CFU/mL) were incubated with 80 μM and 40 μM of peptide in 3% TSB media at 37° C. for 4 h on a 96-well plate, and the control samples of bacteria were incubated in 3% TSB media only. […] The live bacteria stained fluorescent a second color (SYTO9 nucleic acid stain), whereas the dead bacteria with disrupted membranes stained fluorescent a first color (propidium iodide, PI).

[1] = Cytotoxicity, MTS cell viability assay; type: cell-based, human; conditions: human, human dermal fibroblasts (HDF, Detroit 551, ATCC CCL-110)
Experimental: (§1) To evaluate the cytotoxicity of the peptides, human dermal fibroblasts (HDF) were treated for 24 h, and cell viability was determined via MTS assays (FIG. 13).
(§2) Human dermal fibroblast cells (HDF, Detroit 551, ATCC #CCL-110) were cultured in Dulbecco's modified Eagle medium (DMEM; Fisher, Pittsburgh, PA) supplemented with 10% fetal bovine serum (FBS) and 1% penicillin/streptomycin for 24 h. All cells were cultured to 90% confluence in a 37° C., humidified, 5% CO2/95% air environment. Cells at passage numbers of 4-7 were used in these experiments.
(§3) The MTS cell viability assay kit (Promega, Madison, WI, USA) was used to determine cytotoxicity of the peptides. First, HDF cells were seeded on a 96-well plate at a cell density of 5,000 cells/well (equal to 15,385 cells/cm^2), and were incubated overnight for cell adhesion. After overnight incubation, the cell medium in each well was replaced by 100 μL of cell culture medium containing various concentrations of peptides (20 μM to 100 μM). The control samples were cells incubated in cell culture medium only. After 24 h, the treatment medium in each well was removed. The cells were washed with phosphate buffered saline (PBS, pH=7.4, Fisher, PA, USA) and 100 μL of fresh cell culture medium was added to each well, followed by the addition of 20 μL of the MTS reagent. After the cells were incubated for 2.5 h, the absorbance was measured at a wavelength of 490 nm by a spectrophotometer (SpectraMax M3, Molecular Devices, Molecular Devices, Sunnyvale, CA, USA). To estimate the cell numbers in each well, a standard curve expressing the linear correlation between different cell densities and optical densities (R^2>0.95) was plotted, and the cell numbers were determined with this standard curve from the OD490 value recorded in each sample. The cell viability of each sample was calculated by: Cell viability=[(cell density per mL of treated sample)/(cell density per mL of control sample)]×100%. Data were expressed by standard error of the mean (±S.E.M.) and N=3, *p<0.05 compared with control samples.

[2] = system: human dermal fibroblasts (HDF); assay: Cytotoxicity, MTS cell viability assay; type: cell-based
Experimental: as §1, §2, §3

S. aureus = assay: Bacterial growth inhibition (growth curves, OD562, 20 h); type: cell-based, Staphylococcus aureus (ATCC #25923)
Experimental: Gram-positive (S. aureus and MRSA) and Gram-negative (E. coli and MDR E. coli) bacteria were incubated with peptide concentrations ranging from 20 to 100 μM, and time-lapsed bacterial growth was monitored for 20 hours by determining the optical density at 562 nm (O.D. 562 nm). […] At the highest concentration tested (100 μM), the time to exponential growth phase of S. aurues was delayed by about 18 h (FIG. 5B), and was prolonged by almost 13 h for MRSA (FIG. 5A), while bacteria incubated without ACA-PA entered the exponential growth phase within 4 h. Gram-positive bacteria were also susceptible to the ACA-PA even below their CMC.
This assay was performed to investigate the inhibitory effects of each peptide against Gram-positive Staphylococcus aureus (S. aureus, ATCC #25923) and methicillin-resistant S. aureus (MRSA, ATCC #43300), as well as Gram-negative Escherichia coli (E. coli, ATCC #25922), and multidrug-resistant E. coli (MDR E. coli, ATCC #BAA-2471). In all experiments, solutions of each peptide at the concentrations from 20 μM to 100 μM in 3% Tryptic Soy Broth (TSB) media were freshly prepared. A single colony of bacteria was isolated from a stock agar plate and cultured overnight in 4 mL of 3% TSB on a shaking incubator set at 200 rpm and 37° C. The bacteria culture was adjusted to an optical density at 562 nm (OD562) to about 0.52 (10^9 cells/mL), and the resulting bacteria suspension was subsequently diluted to about 10^6 colony forming units (CFU) per mL in each sample. The control samples were bacteria incubated in TSB media without peptides. The bacteria were incubated inside a spectrophotometer (Spectra-Max Paradigm, Molecular Devices, Sunnyvale, CA) at 37° C. under static conditions for 20 h, and the bacterial growth curves were measured in terms of turbidity at OD562 every 2 minutes. The normalized OD562 values of samples were calculated by subtracting the […].

CCCCCCCCCCCCCCCC(=O)N[C@H](C(=O)N[C@H](C(=O)N[C@H](C(=O)N[C@H](C(=O)N[C@@H](CCCCN)C(=O)N[C@@H](CCCCN)C(=O)N[C@@H](CCCCN)C(=O)N[C@@H](CCCCN)C(=O)NCC(=O)N[C@@H](C)C(=O)N[C@@H](CCCCN)C(=O)N[C@@H](CCCCN)C(=O)N[C@@H](C)C(=O)N[C@@H](CCCNC(=N)N)C(=O)N[C@@H](C)C(=O)N[C@@H](C)C(=O)N[C@@H](CCCCN)C(=O)N[C@@H](CCCCN)C(=O)N[C@@H](C)C(=O)N[C@@H](CCCNC(=N)N)C(=O)N[C@@H](C)C(=O)O)C(C)C)C(C)C)C(C)C)C(C)C [ACA-PA, C16-V4K4G(AKKARA)2 (SEQ ID NO: 7)] (Palmitoyl-VVVVKKKKGAKKARAAKKARA-OH; N-terminus and C-terminus assumed)
bacterial viability (live/dead staining) (MDR E. coli; 40 μM): unable to induce considerable cell mortality
bacterial viability (live/dead staining) (MDR E. coli; 80 μM): enhanced the number of dead bacteria drastically
viability at 24 h, 100 µM [1]: > 50%
cytotoxicity [2]: moderate cytotoxicity
delay of time to exponential growth phase (S. aureus; 100 μM): about 18 h
bacterial growth inhibition (S. aureus; 20 to 100 μM, 20 h): remarkably inhibited the proliferation
susceptibility of bacterial growth (S. aureus; below the CMC): susceptible

From US12319752B2, “Heparin-binding cationic peptide self-assembling peptide amphiphiles useful against drug-resistant bacteria” (priority 2016, dated 2025)
